Experiments:
[1] = target: 5-hydroxytryptamine receptor 6 (Homo sapiens, UniProt P50406); test: biochemical
Description: Displacement of [3H]-LSD from human 5-HT6R expressed in HEK293 cell membranes after 1 hr at 37 degC by microbeta counting method

[2] = target: 5-hydroxytryptamine receptor 2A (Homo sapiens, UniProt P28223); test: biochemical; assay type: cell-based, CHO-K1
[3] = target: 5-hydroxytryptamine receptor 7 (Homo sapiens, UniProt P34969); test: biochemical
Description: Displacement of [3H]-5-CT from human 5-HT7R expressed in HEK293 cell membranes after 1 hr at 37 degC by microbeta counting method

[4] = target: T1, 5-hydroxytryptamine receptor 1A (Homo sapiens, UniProt P08908); test: biochemical
T1 sequence (P08908 whole entry): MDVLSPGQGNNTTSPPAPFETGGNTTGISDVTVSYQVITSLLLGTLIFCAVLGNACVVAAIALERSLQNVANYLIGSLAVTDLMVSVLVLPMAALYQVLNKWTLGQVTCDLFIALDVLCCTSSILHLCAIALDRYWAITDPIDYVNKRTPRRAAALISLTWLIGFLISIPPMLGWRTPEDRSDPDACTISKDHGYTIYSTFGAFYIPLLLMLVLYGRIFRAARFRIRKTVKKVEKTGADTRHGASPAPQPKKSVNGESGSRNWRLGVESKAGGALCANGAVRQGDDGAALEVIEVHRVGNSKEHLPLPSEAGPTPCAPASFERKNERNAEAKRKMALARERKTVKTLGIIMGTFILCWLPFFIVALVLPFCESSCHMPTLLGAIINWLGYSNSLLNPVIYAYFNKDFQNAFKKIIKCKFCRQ
Description: Displacement of [3H]-8-OH-DPAT from human 5-HT1AR expressed in HEK293 cell membranes after 1 hr by microbeta counting method

[5] = Drug level in Wistar rat brain at 3 mg/kg, ip measured after 15 mins by LC-MS/MS analysis; assay type: ADME, organism-based; conditions: read-out: Drug uptake
[6] = Ratio of drug level in brain to plasma in Wistar rat at 3 mg/kg, ip measured after 30 mins by LC-MS/MS analysis; assay type: ADME, organism-based; conditions: read-out: BPR
[7] = Drug level in Wistar rat plasma at 3 mg/kg, ip measured after 15 mins by LC-MS/MS analysis; assay type: ADME, organism-based
[8] = Ratio of drug level in brain to plasma in Wistar rat at 3 mg/kg, ip measured after 15 mins by LC-MS/MS analysis; assay type: ADME, organism-based; conditions: read-out: BPR
[9] = Drug level in Wistar rat brain at 3 mg/kg, ip measured after 60 mins by LC-MS/MS analysis; assay type: ADME, organism-based; conditions: read-out: Drug uptake
[10] = Ratio of drug level in brain to plasma in Wistar rat at 3 mg/kg, ip measured after 60 mins by LC-MS/MS analysis; assay type: ADME, organism-based; conditions: read-out: BPR
[11] = Drug level in Wistar rat plasma at 3 mg/kg, ip measured after 30 mins by LC-MS/MS analysis; assay type: ADME, organism-based
[12] = Drug level in Wistar rat plasma at 3 mg/kg, ip measured after 60 mins by LC-MS/MS analysis; assay type: ADME, organism-based
[13] = Drug level in Wistar rat brain at 3 mg/kg, ip measured after 30 mins by LC-MS/MS analysis; assay type: ADME, organism-based; conditions: read-out: Drug uptake

Chain of 5-hydroxytryptamine receptor 6 (P50406 whole entry): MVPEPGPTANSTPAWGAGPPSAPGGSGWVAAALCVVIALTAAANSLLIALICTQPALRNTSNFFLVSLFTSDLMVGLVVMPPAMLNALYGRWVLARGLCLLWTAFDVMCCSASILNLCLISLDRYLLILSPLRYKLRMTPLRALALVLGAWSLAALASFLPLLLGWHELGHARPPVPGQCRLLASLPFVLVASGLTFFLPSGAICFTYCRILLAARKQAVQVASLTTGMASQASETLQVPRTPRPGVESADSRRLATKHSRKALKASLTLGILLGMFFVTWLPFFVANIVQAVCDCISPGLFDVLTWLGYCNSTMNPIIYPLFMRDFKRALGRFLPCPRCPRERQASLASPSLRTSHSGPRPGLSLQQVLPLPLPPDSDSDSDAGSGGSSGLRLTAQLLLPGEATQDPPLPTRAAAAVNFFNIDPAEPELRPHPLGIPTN
Chain of 5-hydroxytryptamine receptor 2A (P28223 whole entry): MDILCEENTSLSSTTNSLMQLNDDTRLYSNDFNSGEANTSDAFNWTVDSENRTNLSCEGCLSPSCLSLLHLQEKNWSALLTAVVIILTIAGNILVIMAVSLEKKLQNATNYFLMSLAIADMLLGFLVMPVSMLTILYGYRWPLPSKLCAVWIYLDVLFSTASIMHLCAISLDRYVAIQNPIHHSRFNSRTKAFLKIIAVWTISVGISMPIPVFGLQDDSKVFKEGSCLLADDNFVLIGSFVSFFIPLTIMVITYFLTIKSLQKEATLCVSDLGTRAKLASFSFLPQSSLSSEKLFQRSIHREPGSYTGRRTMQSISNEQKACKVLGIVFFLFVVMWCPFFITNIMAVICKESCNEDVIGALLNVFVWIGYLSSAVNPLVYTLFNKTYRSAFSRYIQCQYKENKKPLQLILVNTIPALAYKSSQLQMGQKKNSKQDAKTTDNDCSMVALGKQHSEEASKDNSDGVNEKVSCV
Chain of 5-hydroxytryptamine receptor 7 (P34969 whole entry): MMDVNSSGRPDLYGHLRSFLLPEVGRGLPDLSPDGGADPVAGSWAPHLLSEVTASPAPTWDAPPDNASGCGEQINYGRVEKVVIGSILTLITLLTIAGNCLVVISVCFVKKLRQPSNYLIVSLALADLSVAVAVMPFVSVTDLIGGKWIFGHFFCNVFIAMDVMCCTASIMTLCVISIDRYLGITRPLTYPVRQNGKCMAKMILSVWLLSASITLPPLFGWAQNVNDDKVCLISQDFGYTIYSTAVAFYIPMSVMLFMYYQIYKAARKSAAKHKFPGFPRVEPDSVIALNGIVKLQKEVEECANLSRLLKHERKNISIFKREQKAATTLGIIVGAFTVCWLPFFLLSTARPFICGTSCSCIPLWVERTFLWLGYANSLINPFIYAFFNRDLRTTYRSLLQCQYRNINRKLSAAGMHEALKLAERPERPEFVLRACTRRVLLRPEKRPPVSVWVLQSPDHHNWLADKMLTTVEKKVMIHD

Row | SMILES | Ki [1] [nM] | Ki [2] [nM] | Ki [3] [nM] | Ki [4] [nM] | also measured
1 | O=S(=O)(c1cncc2ccccc12)N1CCC[C@@H]1CCN1CC=C(c2c[nH]c3ccc(Cl)cc23)CC1 | 23 | 1900 | 8 | 147 | –
2 | O=S(=O)(c1cncc2ccccc12)N1CCC[C@@H]1CCN1CCN(c2cccc3c2OCCO3)CC1 | 1260 | 390 | 52 | 7 | –
3 | O=S(=O)(c1cncc2ccccc12)N1CCCCC[C@H]1CCN1CCN(c2cccc3sccc23)CC1 | 190 | 29 | 24 | 8 | –
4 | O=c1[nH]c2c(N3CCN(CC[C@@H]4CCCN4S(=O)(=O)c4cccc5ncccc45)CC3)cccc2o1 | 3910 | 2450 | 1120 | 23 | –
5 | O=S(=O)(c1cccc2ncccc12)N1CC[C@@H]1CCN1CCN(c2cccc3sccc23)CC1 | 130 | 7 | 45 | 9 | –
6 | O=S(=O)(c1cccc2ncccc12)N1CCC[C@@H]1CCN1CCN(c2cccc3sccc23)CC1 | 13 | 56 | 1 | 15 | –
7 | O=S(=O)(c1cccc2ncccc12)N1CCC[C@H]1CCN1CC=C(c2c[nH]c3ccc(Cl)cc23)CC1 | 77 | 1400 | 65 | 146 | –
8 | O=S(=O)(c1cccc2ncccc12)N1CCC[C@H]1CCN1CCN(c2cccc3sccc23)CC1 | 82 | 36 | 19 | 13 | –
9 | O=S(=O)(c1cccc2ncccc12)N1CCC[C@H]1CCN1CCC(c2noc3cc(F)ccc23)CC1 | 169 | 12 | 12 | 147 | –
10 | O=S(=O)(c1cccc2ncccc12)N1CCCCC[C@H]1CCN1CCN(c2cccc3sccc23)CC1 | 176 | 51 | 19 | 12 | –
11 | O=S(=O)(c1cccc2cnccc12)N1CCC[C@H]1CCN1CCN(c2noc3ccccc23)CC1 | 92 | 41 | 10 | 86 | –
12 | O=S(=O)(c1cncc2ccccc12)N1CCC[C@H]1CCN1CCN(c2cccc3c2OCCO3)CC1 | 1480 | 91 | 142 | 6 | –
13 | O=S(=O)(c1cncc2ccccc12)N1CCC[C@@H]1CCN1CCN(c2cccc3[nH]ccc23)CC1 | 766 | 76 | 4 | 6 | –
14 | O=S(=O)(c1cccc2ncccc12)N1CCC[C@@H]1CCN1CCN(c2cccc3[nH]ccc23)CC1 | 641 | 451 | 14 | 5 | –
15 | O=c1[nH]c2c(N3CCN(CC[C@H]4CCCN4S(=O)(=O)c4cncc5ccccc45)CC3)cccc2o1 | 1810 | 1970 | 1340 | 36 | –
16 | O=S(=O)(c1cccc2ncccc12)N1CCC[C@@H]1CCN1CC=C(c2c[nH]c3ccc(Cl)cc23)CC1 | 18 | 1150 | 12 | 91 | –
17 | O=c1[nH]c2c(N3CCN(CC[C@@H]4CCCN4S(=O)(=O)c4cncc5ccccc45)CC3)cccc2o1 | 2990 | 2040 | 672 | 27 | –
18 | O=S(=O)(c1cccc2cnccc12)N1CCC[C@H]1CCN1CCN(c2nsc3ccccc23)CC1 | 360 | 18 | 12 | 37 | concentration at 0.25 h [5]: 90.1 nM; Kp at 0.5 h [6]: 0.19; concentration at 0.25 h [7]: 647 nM; Kp at 0.25 h [8]: 0.15; concentration at 1 h [9]: 19.7 nM; Kp at 1 h [10]: 0.17; concentration at 0.5 h [11]: 417 nM; concentration at 1 h [12]: 117 nM; concentration at 0.5 h [13]: 67.1 nM
19 | O=S(=O)(c1cncc2ccccc12)N1CCC[C@H]1CCN1CCC(c2noc3cc(F)ccc23)CC1 | 137 | 6 | 0.4 | 111 | –
20 | O=S(=O)(c1ccnc2ccccc12)N1CCCC[C@@H]1CCN1CCN(c2nsc3ccccc23)CC1 | 1260 | 35 | 69 | 24 | –
21 | O=S(=O)(c1cncc2ccccc12)N1CC[C@@H]1CCN1CCN(c2nsc3ccccc23)CC1 | 348 | 24 | 51 | 56 | –

Row | SMILES | Ki [1] [nM] | Ki [2] [nM] | Ki [3] [nM] | Ki [4] [nM] | also measured
22 | O=S(=O)(c1cccc2ncccc12)N1CCC[C@@H]1CCN1CCN(c2cccc3c2OCCO3)CC1 | 996 | 296 | 66 | 5 | –
23 | O=S(=O)(c1cncc2ccccc12)N1CCC[C@H]1CCN1CCN(c2cccc3[nH]ccc23)CC1 | 2060 | 82 | 75 | 8 | –
24 | O=S(=O)(c1cccc2cnccc12)N1CCC[C@@H]1CCN1CCN(c2nsc3ccccc23)CC1 | 40 | 15 | 1 | 16 | concentration at 0.25 h [5]: 114 nM; Kp at 0.5 h [6]: 0.21; concentration at 0.25 h [7]: 450 nM; Kp at 0.25 h [8]: 0.28; concentration at 1 h [9]: 35.5 nM; Kp at 1 h [10]: 0.45; concentration at 0.5 h [11]: 389 nM; concentration at 1 h [12]: 79.2 nM; concentration at 0.5 h [13]: 81.9 nM
25 | O=S(=O)(c1cccc2cnccc12)N1CCC[C@H]1CCN1CCN(c2cccc3sccc23)CC1 | 72 | 9 | 23 | 10 | –
26 | O=S(=O)(c1cncc2ccccc12)N1CCCC[C@@H]1CCN1CCN(c2cccc3sccc23)CC1 | 221 | 64 | 32 | 12 | –
27 | O=S(=O)(c1cccc2ncccc12)N1CCC[C@H]1CCN1CCN(c2noc3ccccc23)CC1 | 291 | 49 | 7 | 179 | –
28 | O=S(=O)(c1cccc2ncccc12)N1CCCC[C@@H]1CCN1CCN(c2nsc3ccccc23)CC1 | 949 | 29 | 52 | 28 | –
29 | O=S(=O)(c1cccc2ncccc12)N1CCC[C@H]1CCN1CCN(c2cccc3[nH]ccc23)CC1 | 2310 | 244 | 165 | 14 | –
30 | O=S(=O)(c1cccc2ncccc12)N1CCC[C@@H]1CCN1CCN(c2nsc3ccccc23)CC1 | 38 | 21 | – | 24 | –
31 | O=S(=O)(c1cccc2ncccc12)N1CC[C@@H]1CCN1CCN(c2nsc3ccccc23)CC1 | 344 | 30 | 57 | 54 | –
32 | O=S(=O)(c1ccnc2ccccc12)N1CCCCC[C@H]1CCN1CCN(c2nsc3ccccc23)CC1 | 623 | 26 | 19 | 50 | –
33 | O=S(=O)(c1cccc2cnccc12)N1CCC[C@@H]1CCN1CCN(c2cccc3sccc23)CC1 | 9 | 19 | 3 | 13 | –
34 | O=S(=O)(c1cccc2ncccc12)N1CCC[C@@H]1CCN1CCC(c2noc3cc(F)ccc23)CC1 | 45 | 5 | 12 | 120 | –
35 | O=S(=O)(c1cccc2ncccc12)N1CCCC[C@@H]1CCN1CCN(c2cccc3sccc23)CC1 | 337 | 35 | 22 | 15 | –
36 | O=S(=O)(c1cncc2ccccc12)N1CCC[C@H]1CCN1CC=C(c2c[nH]c3ccc(Cl)cc23)CC1 | 60 | 238 | 97 | 66 | –
37 | O=S(=O)(c1cccc2ncccc12)N1CCCCC[C@H]1CCN1CCN(c2nsc3ccccc23)CC1 | 457 | 30 | 17 | 48 | –
38 | O=S(=O)(c1cccc2ncccc12)N1CCC[C@H]1CCN1CCN(c2cccc3c2OCCO3)CC1 | 2530 | 110 | 349 | 6 | –
39 | O=S(=O)(c1cncc2ccccc12)N1CCC[C@H]1CCN1CCN(c2noc3ccccc23)CC1 | 497 | 33 | 6 | 96 | –
40 | O=S(=O)(c1cccc2ncccc12)N1CCC[C@H]1CCN1CCN(c2nsc3ccccc23)CC1 | 311 | 16 | – | 25 | –
41 | O=S(=O)(c1cncc2ccccc12)N1CC[C@@H]1CCN1CCN(c2cccc3sccc23)CC1 | 104 | 16 | 31 | 16 | –
